Assay results reported in ChEMBL document CHEMBL3817752, “Antimycobacterial activity of new N(1)-[1-[1-aryl-3-[4-(1H-imidazol-1-yl)phenyl]-3-oxo]propyl]-pyridine-2-carboxamidrazone derivatives” (Bioorg Med Chem Lett, 2016).
Values after ≈ are worked out from the molar mass of the structure shown.

Tested on: Mycobacterium tuberculosis variant bovis
Test: Antimycobacterial activity against Mycobacterium bovis NCTC 10772 after 7 days by resazurin microtiter assay
Format: functional
Settings: NCTC 10772, 168 h

SMILES | MIC
NNC(=O)c1ccncc1 [ISONIAZID] | 7.3 µM (≈ 1 µg/mL)
N/C(=N/NC(CC(=O)c1ccc(-n2ccnc2)cc1)c1ccc(Br)cc1)c1ccccn1 (stereo not given) | 8.2 µM (≈ 4.01 µg/mL)
N/C(=N/NC(CC(=O)c1ccc(-n2ccnc2)cc1)c1ccc(Cl)cc1)c1ccccn1 (stereo not given) | 18 µM (≈ 8.01 µg/mL)
N/C(=N/NC(CC(=O)c1ccc(-n2ccnc2)cc1)c1ccc(F)cc1)c1ccccn1 (stereo not given) | 18.7 µM (≈ 8.01 µg/mL)
N/C(=N/NC(CC(=O)c1ccc(-n2ccnc2)cc1)c1ccccc1[N+](=O)[O-])c1ccccn1 (stereo not given) | 17.6 µM (≈ 8.02 µg/mL)
N/C(=N/NC(CC(=O)c1ccc(-n2ccnc2)cc1)c1ccccc1Br)c1ccccn1 (stereo not given) | 32.7 µM (≈ 16 µg/mL)
N/C(=N/NC(CC(=O)c1ccc(-n2ccnc2)cc1)c1ccccc1F)c1ccccn1 (stereo not given) | 18.7 µM (≈ 8.01 µg/mL)
N/C(=N/NC(CC(=O)c1ccc(-n2ccnc2)cc1)c1cccc(F)c1)c1ccccn1 (stereo not given) | 18.7 µM (≈ 8.01 µg/mL)
N/C(=N/NC(CC(=O)c1ccc(-n2ccnc2)cc1)c1cccc(Br)c1)c1ccccn1 (stereo not given) | 16.3 µM (≈ 7.98 µg/mL)
N/C(=N/NC(CC(=O)c1ccc(-n2ccnc2)cc1)c1ccc([N+](=O)[O-])cc1)c1ccccn1 (stereo not given) | 35.1 µM (≈ 16 µg/mL)
N/C(=N/NC(CC(=O)c1ccc(-n2ccnc2)cc1)c1ccccc1Cl)c1ccccn1 (stereo not given) | 18 µM (≈ 8.01 µg/mL)
N/C(=N/NC(CC(=O)c1ccc(-n2ccnc2)cc1)c1cccc(Cl)c1)c1ccccn1 (stereo not given) | 18 µM (≈ 8.01 µg/mL)
N/C(=N/NC(CC(=O)c1ccc(-n2ccnc2)cc1)c1cccc([N+](=O)[O-])c1)c1ccccn1 (stereo not given) | 17.6 µM (≈ 8.02 µg/mL)
N/C(=N/NC(CC(=O)c1ccc(-n2ccnc2)cc1)c1ccccc1)c1ccccn1 (stereo not given) | 39 µM (≈ 16 µg/mL)
N/C(=N/NC(CC(=O)c1ccc(-n2ccnc2)cc1)c1ccc(Cl)cc1Cl)c1ccccn1 (stereo not given) | 9 µM (≈ 4.31 µg/mL)
